Source: ChEMBL document CHEMBL4825709 (J Med Chem, 2021)
Converted amounts (≈) assume the structure as drawn.

What was measured:
physchem [1] = experiment: physchem
physchem [2] = settings: buffer, pH 7.4, logD
[3] = buffer, pH 7.4
[4] = Solubility of compound in pH 7.4 by charged aerosol detection method; type: physicochemical; settings: buffer
physchem [5] = settings: FaSSIF, pH 6.5
[6] = Half life in Wistar Han rat at 1 mg/kg, iv measured up to 24 hrs by LC-MS/MS analysis; type: ADME, organism-based; settings: in vivo
[7] = AUC (0 to infinity) in Wistar Han rat at 1 mg/kg, iv measured up to 24 hrs by LC-MS/MS analysis; type: ADME, organism-based; set-up: route intravenous, dose 1 mg/kg, time <=24; settings: in vivo
[8] = Intrinsic clearance in rat hepatocytes at 0.5 uM measured after 60 mins by LC-MS/MS analysis; type: ADME, cell-based, Hepatocyte; settings: 1 h
[9] = Volume of distribution at steady state in Wistar Han rat at 1 mg/kg, iv measured up to 24 hrs by LC-MS/MS analysis; type: ADME, organism-based; settings: in vivo, read-out: Vdss
[10] = Intrinsic clearance in human hepatocytes at 0.5 uM measured after 120 mins by LC-MS/MS analysis; type: ADME, cell-based, Hepatocyte; settings: 2 h
[11] = Intrinsic clearance in dog hepatocytes at 0.5 uM measured after 120 mins by LC-MS/MS analysis; type: ADME, cell-based, Canis lupus familiaris, Hepatocyte; settings: 2 h
[12] = Tmax in Wistar Han rat at 3 mg/kg, po measured up to 24 hrs by LC-MS/MS analysis; type: ADME, organism-based; settings: in vivo
[13] = Oral bioavailability in Wistar Han rat at 3 mg/kg measured up to 24 hrs by LC-MS/MS analysis; type: ADME, organism-based; settings: in vivo
[14] = Cmax in Wistar Han rat at 3 mg/kg, po measured up to 24 hrs by LC-MS/MS analysis; type: ADME, organism-based; set-up: route oral, dose 3 mg/kg, time <=24; settings: in vivo
[15] = AUC (0 to infinity) in Wistar Han rat at 3 mg/kg, po measured up to 24 hrs by LC-MS/MS analysis; type: ADME, organism-based; set-up: route oral, dose 3 mg/kg, time <=24; settings: in vivo
[16] = Clearance in Wistar Han rat at 1 mg/kg, iv measured up to 24 hrs by LC-MS/MS analysis; type: ADME, organism-based; settings: in vivo

Row | SMILES | solubility (physchem [1]) [µg/mL] | logD (physchem [2]) | further results
1 | CNC(=O)C(C)N(CC(c1ccccc1)c1ccccc1)C(=O)c1cc(C)c(=O)n(C)c1 (configuration not stated) | 213 (≈ 494 µM) | 3.7 | 
2 | CNC(=O)C(C)N(CC(c1ccccc1)c1ccccn1)C(=O)c1cc(C)c(=O)n(C)c1 (stereo in doubt; 57) |  |  | logD [3]: 2.6
3 | CNC(=O)CN(CC(c1ccccc1)c1ccccc1)C(=O)c1cc(C)c(OC)c(C)c1 | 114 (≈ 265 µM) | 5.7 | 
4 | CNC(=O)C(C1CCOC1)N(CC(c1ccccc1)c1ccccc1)C(=O)c1cc(C)c(=O)n(C)c1 (stereo in doubt; 23) |  |  | solubility [4]: > 181 µg/mL
5 | CNC(=O)CN(CC(C)c1ccccc1)C(=O)c1cc(C)c(=O)n(C)c1 (configuration not stated) |  | 2.2 | 
6 | Cc1cc(C(=O)N(CC(c2ccccc2)c2ccccc2)C(C)C2CCCO2)cn(C)c1=O (configuration not stated) | 108 (≈ 243 µM) | 5.1 | solubility at 16 h (physchem [5]): 21 µg/mL (≈ 47.2 µM)
7 | Cc1cc(C(=O)N(CC(c2ccccc2)c2ccccc2)C(C)C#N)cn(C)c1=O (configuration not stated) | > 157 | 4.8 | solubility at 16 h (physchem [5]): 13 µg/mL (≈ 32.5 µM)
8 | CNC(=O)CN(CC(CC1CCOCC1)c1ccccc1)C(=O)c1cc(C)c(=O)n(C)c1 (configuration not stated) |  | 2.4 | 
9 | Cc1cc(C(=O)N(CC(c2ccccc2)c2ccccc2)C(C)CN2CCOCC2)cn(C)c1=O (configuration not stated) | > 206 | 5.4 | solubility at 16 h (physchem [5]): 91 µg/mL (≈ 192 µM)
10 | CNC(=O)C(C1CCC1)N(CC(c1ccccc1)c1ccccc1)C(=O)c1cc(C)c(=O)n(C)c1 (configuration not stated) | 161 (≈ 341 µM) | 4.9 | 
11 | CNC(=O)CN(CC(c1ccccc1)n1ccnc1)C(=O)c1cc(C)c(=O)n(C)c1 (configuration not stated) |  | 1.45 | 
12 | CNC(=O)C(C1CCOC1)N(CC(c1ccccc1)c1ccccc1)C(=O)c1cc(C)c(=O)n(C)c1 (stereo in doubt; 24) |  |  | solubility [4]: > 153 µg/mL
13 | CNC(=O)[C@H](C1CCOCC1)N(CC(c1ccccc1)c1ccccn1)C(=O)c1cc(C)c(=O)n(C)c1 (stereo in doubt) |  |  | half-life [6]: 11.4 min; logD [3]: 2.9; AUC(0-inf) [7]: 340 ng·h/mL; CLH [8]: 3.13 mL/min/g; Vd [9]: 0.6 L/kg; CLH [10]: < 0.45 mL/min/g; CLH [11]: < 0.65 mL/min/g; solubility at 16 h (physchem [5]): > 1000 µg/mL; Tmax [12]: 15 min; bioavailability [13]: 16%; solubility ([4]; read-out: solubility): > 231 µg/mL; Cmax [14]: 398 nM; AUC(0-inf) [15]: 162 ng·h/mL; clearance [16]: 50 mL/min/kg
14 | CNC(=O)C(C1CC1)N(CC(c1ccccc1)c1ccccc1)C(=O)c1cc(C)c(=O)n(C)c1 (configuration not stated) | 91 (≈ 199 µM) | 4.4 | solubility at 16 h (physchem [5]): 30 µg/mL (≈ 65.6 µM)
15 | CCNC(=O)C(C)N(CC(c1ccccc1)c1ccccc1)C(=O)C1CCC(=O)N(C)C1 (configuration not stated) |  | 3.9 | 
16 | CNC(=O)C1(N(CC(c2ccccc2)c2ccccc2)C(=O)c2cc(C)c(=O)n(C)c2)CCCC1 |  | 4.7 | solubility at 16 h (physchem [5]): 132 µg/mL (≈ 280 µM)
17 | CNC(=O)[C@@H](C1CCOCC1)N(CC(c1ccccc1)c1ccccn1)C(=O)c1cc(C)c(=O)n(C)c1 (stereo in doubt; 63) |  |  | logD [3]: 2.9
18 | COCC(COC)N(CC(c1ccccc1)c1ccccc1)C(=O)c1cc(C)c(=O)n(C)c1 | > 186 | 5.5 | solubility at 16 h (physchem [5]): 78 µg/mL (≈ 174 µM)
19 | CNC(=O)C(C)N(CC(c1ccccc1)c1ccccc1)C(=O)c1cc(OC)c(=O)n(C)c1 (configuration not stated) | 111 (≈ 248 µM) | 3.3 | solubility at 16 h (physchem [5]): 661 µg/mL (≈ 1480 µM)
20 | CNC(=O)[C@@H](C1CCOCC1)N(CC(c1ccccc1)c1ccccn1)C(=O)c1cc(C)c(=O)n(C)c1 (stereo in doubt; 61) |  | 2.8 | 
21 | CNC(=O)C(C(C)C)N(CC(c1ccccc1)c1ccccc1)C(=O)c1cc(C)c(=O)n(C)c1 (configuration not stated) | 105 (≈ 228 µM) | 4.9 | solubility at 16 h (physchem [5]): 60 µg/mL (≈ 131 µM)
22 | CNC(=O)C(C1CCOC1)N(CC(c1ccccc1)c1ccccc1)C(=O)c1cc(C)c(=O)n(C)c1 (stereo in doubt; 21) |  |  | solubility at 16 h (physchem [5]): 987 µg/mL (≈ 2020 µM); solubility [4]: > 143 µg/mL
23 | CCNC(=O)C(C)N(CC(c1ccccc1)c1ccccc1)C(=O)c1c[nH]c(=O)c(C)c1 (configuration not stated) | > 170 | 3.6 | 
24 | CNC(=O)C(C)N(CC(c1ccccc1)c1ccccc1)C(=O)c1cn(C)c(=O)c(C)n1 (configuration not stated) |  | 4.1 | solubility ([4]; read-out: solubility): > 102 µg/mL
25 | CNC(=O)[C@H](C1CCOCC1)N(CC(c1ccccc1)c1ccccn1)C(=O)c1cc(C)c(=O)n(C)c1 (stereo in doubt; 62) |  | 2.8 | 

Row | SMILES | solubility (physchem [1]) [µg/mL] | logD (physchem [2]) | further results
26 | CNC(=O)CN(CC(c1ccccc1)C(C)C)C(=O)c1cc(C)c(=O)n(C)c1 (configuration not stated) |  | 3.3 | 
27 | CNC(=O)C(C)N(CC(O)(c1ccccc1)c1ccccc1)C(=O)c1cc(C)c(=O)n(C)c1 (configuration not stated) |  | 2.9 | 
28 | CNC(=O)C(C)N(CC(c1ccccc1)c1cccnc1)C(=O)c1cc(C)c(=O)n(C)c1 (configuration not stated) |  | 1.9 | 
29 | CNC(=O)C(N(CC(c1ccccc1)c1ccccc1)C(=O)c1cc(C)c(=O)n(C)c1)C(C)(C)C (configuration not stated) | 93 (≈ 196 µM) | 5.4 | solubility at 16 h (physchem [5]): 2 µg/mL (≈ 4.22 µM)
30 | Cc1cc(C(=O)N(CC(N)=O)CC(c2ccccc2)c2ccccc2)cn(C)c1=O | > 175 | 2.9 | 
31 | CCOC(CN(CC(=O)NC)C(=O)c1cc(C)c(=O)n(C)c1)c1ccccc1 (configuration not stated) |  | 2.7 | 
32 | Cc1cc(C(=O)N(CCN2CCOCC2)CC(c2ccccc2)c2ccccc2)cn(C)c1=O | > 239 | 4.1 | 
33 | CNC(=O)C(C)N(CC(c1ccccc1)c1ccccn1)C(=O)c1cc(C)c(=O)n(C)c1 (stereo in doubt; 50) |  | 2.3 | 
34 | CNC(=O)CN(CC(c1ccccc1)C1CCOCC1)C(=O)c1cc(C)c(=O)n(C)c1 (configuration not stated) |  | 2.1 | 
35 | CNC(=O)C(C1CCOC1)N(CC(c1ccccc1)c1ccccc1)C(=O)c1cc(C)c(=O)n(C)c1 (racemic) |  | 4 | solubility ([4]; read-out: solubility): > 138 µg/mL
36 | CNC(=O)C(C)N(CC(c1ccccc1)c1ccccn1)C(=O)c1cc(C)c(=O)n(C)c1 (stereo in doubt; 56) |  |  | logD [3]: 2.7
37 | CNC(=O)C1(N(CC(c2ccccc2)c2ccccc2)C(=O)c2cc(C)c(=O)n(C)c2)CCC1 | > 150 | 4.9 | 
38 | CNC(=O)C(C1CCOC1)N(CC(c1ccccc1)c1ccccc1)C(=O)c1cc(C)c(=O)n(C)c1 (stereo in doubt; 22) |  |  | solubility [4]: > 185 µg/mL
39 | CNC(=O)CN(CC(c1ccccc1)c1ccccc1)C(=O)c1cc(C)c(=O)n(C)c1 | 163 (≈ 390 µM) | 3.4 | 
40 | CNC(=O)[C@H](C)N(CC(c1ccccc1)c1ccccc1)C(=O)c1cc(C)c(=O)n(C)c1 | > 163 |  | 
41 | CNC(=O)C1(N(CC(c2ccccc2)c2ccccc2)C(=O)c2cc(C)c(=O)n(C)c2)CC1 | > 194 | 4.4 | solubility at 16 h (physchem [5]): 819 µg/mL (≈ 1850 µM)
42 | CNC(=O)C(C)(C)N(CC(c1ccccc1)c1ccccc1)C(=O)c1cc(C)c(=O)n(C)c1 | > 242 | 3.7 | 
43 | CNC(=O)[C@@H](C)N(CC(c1ccccc1)c1ccccc1)C(=O)c1cc(C)c(=O)n(C)c1 | > 211 |  | 
44 | CCNC(=O)C(C)N(CC(c1ccccc1)c1ccccc1)C(=O)c1cc(C)c(=O)n(C)c1 (configuration not stated) |  | 4.3 | 
45 | CCC(C(=O)NC)N(CC(c1ccccc1)c1ccccc1)C(=O)c1cc(C)c(=O)n(C)c1 (configuration not stated) |  | 4.3 | solubility at 16 h (physchem [5]): 150 µg/mL (≈ 337 µM)
46 | CCNC(=O)C(C)N(CC(c1ccccc1)c1ccccc1)C(=O)c1ccc(=O)n(C)c1 (configuration not stated) | > 169 | 3.7 | 
47 | CNC(=O)C(C)N(CC(c1ccccc1)c1ccncc1)C(=O)c1cc(C)c(=O)n(C)c1 (configuration not stated) |  | 1.7 | 
48 | CNC(=O)C(C)N(CC(c1ccccc1)c1ccccn1)C(=O)c1cc(C)c(=O)n(C)c1 (stereo in doubt; 51) |  |  | logD [3]: 2.1
49 | CNC(=O)C(C1COC1)N(CC(c1ccccc1)c1ccccc1)C(=O)c1cc(C)c(=O)n(C)c1 (configuration not stated) | > 142 | 3.6 | 
50 | CCC(CN(CC(=O)NC)C(=O)c1cc(C)c(=O)n(C)c1)c1ccccc1 (configuration not stated) |  | 2.8 | 
